In patent US6423689B1, “Peptidyl calcium channel blockers” (Warner-Lambert Company, priority 1997, dated 2002):

Assays:
[1] = target: T1, N-type Ca2+ channels in IMR-32 cells (Homo sapiens, UniProt Q00975); assay: Inhibition of N-type calcium flux in IMR-32 cells (Indo-1 fluorescence, nitrendipine present); assay type: cell-based; details: for inhibition at 1 µM / inhibition at 10 µM: IMR-32; for IC50: IMR-32 cells, 5 μM nitrendipine, K+ depolarization
T1 construct: host or cells: IMR-32 cells, differentiated with dibutyryl cAMP and bromodeoxyuridine
T1 sequence (Q00975 whole entry): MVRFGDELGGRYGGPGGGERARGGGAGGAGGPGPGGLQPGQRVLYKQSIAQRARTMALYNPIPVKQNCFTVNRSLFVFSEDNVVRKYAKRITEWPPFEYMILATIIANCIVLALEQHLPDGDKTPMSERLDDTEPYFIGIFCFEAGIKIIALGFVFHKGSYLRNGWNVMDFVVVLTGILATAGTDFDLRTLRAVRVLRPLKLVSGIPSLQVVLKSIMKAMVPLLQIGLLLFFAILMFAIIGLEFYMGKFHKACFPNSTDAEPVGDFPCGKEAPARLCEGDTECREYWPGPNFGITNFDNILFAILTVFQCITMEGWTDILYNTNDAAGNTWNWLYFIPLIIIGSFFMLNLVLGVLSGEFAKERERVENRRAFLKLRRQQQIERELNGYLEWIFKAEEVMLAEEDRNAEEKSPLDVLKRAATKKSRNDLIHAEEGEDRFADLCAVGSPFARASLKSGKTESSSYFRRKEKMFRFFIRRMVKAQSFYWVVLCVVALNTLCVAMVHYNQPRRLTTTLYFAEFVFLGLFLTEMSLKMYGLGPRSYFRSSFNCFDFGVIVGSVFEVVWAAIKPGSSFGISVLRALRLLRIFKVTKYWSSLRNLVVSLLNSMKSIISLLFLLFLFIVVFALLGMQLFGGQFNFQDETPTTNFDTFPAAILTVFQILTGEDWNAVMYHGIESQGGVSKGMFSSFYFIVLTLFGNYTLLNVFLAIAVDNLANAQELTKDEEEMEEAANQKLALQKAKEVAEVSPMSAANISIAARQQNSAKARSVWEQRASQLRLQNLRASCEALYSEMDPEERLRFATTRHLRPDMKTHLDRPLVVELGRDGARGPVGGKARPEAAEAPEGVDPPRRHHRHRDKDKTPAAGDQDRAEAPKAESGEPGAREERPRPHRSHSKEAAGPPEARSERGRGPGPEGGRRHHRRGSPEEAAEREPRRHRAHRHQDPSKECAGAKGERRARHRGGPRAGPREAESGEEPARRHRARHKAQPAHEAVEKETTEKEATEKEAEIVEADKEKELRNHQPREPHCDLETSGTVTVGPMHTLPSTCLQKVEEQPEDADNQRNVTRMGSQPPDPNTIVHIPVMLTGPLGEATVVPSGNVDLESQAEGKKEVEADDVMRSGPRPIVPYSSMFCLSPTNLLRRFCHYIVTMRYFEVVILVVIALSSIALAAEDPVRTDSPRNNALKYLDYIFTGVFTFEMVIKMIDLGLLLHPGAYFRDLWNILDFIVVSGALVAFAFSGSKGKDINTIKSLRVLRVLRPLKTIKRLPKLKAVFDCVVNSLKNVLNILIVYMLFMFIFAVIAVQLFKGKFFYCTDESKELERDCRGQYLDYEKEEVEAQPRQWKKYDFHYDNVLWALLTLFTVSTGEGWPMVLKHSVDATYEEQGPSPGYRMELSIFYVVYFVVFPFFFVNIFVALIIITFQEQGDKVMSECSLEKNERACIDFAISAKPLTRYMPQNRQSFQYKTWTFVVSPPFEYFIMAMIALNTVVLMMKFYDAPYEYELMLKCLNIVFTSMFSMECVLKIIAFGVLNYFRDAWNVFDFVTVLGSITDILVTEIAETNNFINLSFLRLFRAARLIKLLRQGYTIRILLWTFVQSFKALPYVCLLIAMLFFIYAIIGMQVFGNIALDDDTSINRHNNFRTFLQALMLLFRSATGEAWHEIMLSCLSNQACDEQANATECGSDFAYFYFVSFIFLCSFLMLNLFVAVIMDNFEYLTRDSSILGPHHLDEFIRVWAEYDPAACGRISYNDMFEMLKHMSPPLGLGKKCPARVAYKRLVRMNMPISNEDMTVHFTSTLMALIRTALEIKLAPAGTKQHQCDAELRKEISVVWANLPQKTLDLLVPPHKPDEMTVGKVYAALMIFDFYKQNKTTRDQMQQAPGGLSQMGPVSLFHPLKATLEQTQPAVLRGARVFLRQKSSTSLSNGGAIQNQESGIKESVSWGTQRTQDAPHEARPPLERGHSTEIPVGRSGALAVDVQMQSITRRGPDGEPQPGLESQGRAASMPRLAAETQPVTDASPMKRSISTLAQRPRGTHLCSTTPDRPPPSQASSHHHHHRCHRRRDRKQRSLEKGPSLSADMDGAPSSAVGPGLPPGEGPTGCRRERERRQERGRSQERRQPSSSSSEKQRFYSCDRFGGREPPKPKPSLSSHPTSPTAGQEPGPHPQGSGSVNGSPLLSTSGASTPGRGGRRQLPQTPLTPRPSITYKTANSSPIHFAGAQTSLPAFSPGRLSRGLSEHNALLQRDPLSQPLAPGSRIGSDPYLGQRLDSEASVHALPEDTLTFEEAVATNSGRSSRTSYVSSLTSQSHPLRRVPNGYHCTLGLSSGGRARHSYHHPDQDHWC
T1 sequence (P54289 25-956 partner limits assumed): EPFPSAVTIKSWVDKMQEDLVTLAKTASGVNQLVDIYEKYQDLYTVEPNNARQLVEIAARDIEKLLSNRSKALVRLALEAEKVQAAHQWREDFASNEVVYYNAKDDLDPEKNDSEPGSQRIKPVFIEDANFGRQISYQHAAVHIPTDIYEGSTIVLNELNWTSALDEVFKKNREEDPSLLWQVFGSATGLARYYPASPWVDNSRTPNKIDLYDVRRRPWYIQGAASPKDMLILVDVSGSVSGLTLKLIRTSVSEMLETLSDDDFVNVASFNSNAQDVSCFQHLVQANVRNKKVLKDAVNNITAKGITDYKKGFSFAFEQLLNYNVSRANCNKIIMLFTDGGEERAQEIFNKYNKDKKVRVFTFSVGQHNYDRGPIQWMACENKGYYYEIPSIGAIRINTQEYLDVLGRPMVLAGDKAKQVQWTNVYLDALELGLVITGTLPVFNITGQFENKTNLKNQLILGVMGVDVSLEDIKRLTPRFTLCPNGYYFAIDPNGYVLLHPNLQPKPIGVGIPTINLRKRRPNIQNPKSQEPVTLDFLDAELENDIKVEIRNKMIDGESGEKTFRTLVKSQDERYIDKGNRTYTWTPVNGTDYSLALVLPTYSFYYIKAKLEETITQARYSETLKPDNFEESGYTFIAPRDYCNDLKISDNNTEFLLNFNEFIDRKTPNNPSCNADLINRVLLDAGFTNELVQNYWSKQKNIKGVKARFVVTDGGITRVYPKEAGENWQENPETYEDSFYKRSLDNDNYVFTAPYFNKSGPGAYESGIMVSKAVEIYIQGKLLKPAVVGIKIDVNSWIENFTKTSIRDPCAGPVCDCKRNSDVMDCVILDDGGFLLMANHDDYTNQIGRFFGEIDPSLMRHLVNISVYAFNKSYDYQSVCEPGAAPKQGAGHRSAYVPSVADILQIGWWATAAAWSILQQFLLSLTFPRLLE
T1 sequence (P54289 957-1103 partner limits assumed): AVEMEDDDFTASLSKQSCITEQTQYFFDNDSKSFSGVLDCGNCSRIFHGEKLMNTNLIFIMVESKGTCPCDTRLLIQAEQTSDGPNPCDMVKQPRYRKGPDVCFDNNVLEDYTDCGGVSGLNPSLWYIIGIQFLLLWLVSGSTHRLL
T1 sequence (P54284 whole entry partner): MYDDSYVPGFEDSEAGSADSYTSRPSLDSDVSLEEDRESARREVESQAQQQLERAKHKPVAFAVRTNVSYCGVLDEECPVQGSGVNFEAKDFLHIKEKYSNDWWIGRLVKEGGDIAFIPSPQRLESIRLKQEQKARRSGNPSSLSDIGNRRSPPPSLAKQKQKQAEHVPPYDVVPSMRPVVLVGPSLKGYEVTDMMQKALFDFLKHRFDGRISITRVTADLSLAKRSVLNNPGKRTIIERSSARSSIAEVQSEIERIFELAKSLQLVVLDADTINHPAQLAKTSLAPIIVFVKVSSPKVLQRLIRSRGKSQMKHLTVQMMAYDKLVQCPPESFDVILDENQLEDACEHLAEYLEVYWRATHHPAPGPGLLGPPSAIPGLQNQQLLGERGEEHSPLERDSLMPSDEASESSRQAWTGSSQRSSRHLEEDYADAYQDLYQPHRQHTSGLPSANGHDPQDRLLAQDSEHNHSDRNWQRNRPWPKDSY
How it was run: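 With L-type flux blocked by 5 μM nitrendipine, N-type Ca2+ entry was read as the Indo-1 emission ratio (400/490 nm, excitation 350 nm) at 30° C after KCl depolarization.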

[2] = system: L-type Ca2+ channels in GH3 cells; assay: Inhibition of L-type calcium flux in GH3 cells (Indo-1 fluorescence); assay type: cell-based, rat
Procedure: Measurement of L-type Ca^2+ Channel Blocking Potencies of Compounds in GH3 Cells Using the Fluorescent Ca^2+ Indicator Indo-1
The GH3 rat pituitary cell line was obtained from the American Type Culture Collection (Rockville, Md.). Cells were grown in Ham's F-10 medium with 15% horse serum, 2.5% fetal bovine serum (FBS), and […] (Gibco, Gaithersburg, Md.). Confluent cells were detached using 0.5 mM EDTA and loaded with 5 μM Indo-acetoxymethyl ester (Molecular Probes, Eugene, Oreg.) in 1% bovine serum albumin (BSA) containing assay buffer (10 mM HEPES/Tris pH 7.4 in Hank's Balanced Salt Solution without bicarbonate or phenol red) for 60 minutes at 30° C. Loaded cells were washed twice, resuspended (approx. 10^7 cells/mL) in assay buffer containing 0.5% BSA, and kept on ice until use (<3 hrs). Different concentrations of the test compounds (60 μL in dimethyl sulfoxide) or controls were added to 5.94 mL of assay buffer containing approximately 3×10^6 loaded cells, and the samples were incubated for 10 minutes at 30° C. After incubation, samples were aliquoted into 3 cuvettes, and their fluorescence was measured with a Photon Technology International (PTI, South Brunswick, N.J.) Model RF-F3004 spectrofluorometer thermostatted at 30° C. Excitation was set at 350 nm and dual emissions were recorded at 400 and 490 nm. Basal emission signals were acquired for 20 seconds, followed by the depolarization of cells by the addition of 200 μL of a stimulation solution (1 M KCl, 68 mM CaCl2) to the stirred cuvette. Emission signals were acquired for an additional 50 seconds after depolarization. Ratio of emission signals (F400 nm/F490 nm), which is proportional to intracellular Ca^2+ concentration, was plotted against time, and the difference between the emission ratio 50 seconds after stimulation and its basal value (before stimulation) was determined. Values obtained in this way were considered as measures of depolarization-induced Ca-flux through L-type channels and plotted as a function of drug concentration. IC50 values of test compounds were calculated by fitting a four-parameter logistic function to the data using the least squares method.

[3] = system: K+ channels in superior cervical ganglion (SCG) neurons; assay: Whole-cell voltage clamp, K+ current in SCG neurons; assay type: cell-based, rat; details: 10 μM
How it was run: (§1)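 Percent inhibition of control amplitude at steady-state block is the read-out: peak inward Na+ current at 0 mV, sustained K+ current at +50 mV, 35 msec steps every 10 sec from −65 to −55 mV. Recordings used whole-cell clamp of trypsin-dissociated SCG neurons, pH 7.4 external and pipette solutions, compounds applied by local perfusion.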

[4] = target: T2, N-type Ca2+ channels in superior cervical ganglion (SCG) neurons (Rattus norvegicus, UniProt Q02294); assay: Whole-cell voltage clamp, N-type Ca2+ current in SCG neurons; assay type: cell-based
T2 construct: from tissue
How it was run: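 Whole-cell voltage clamp of acutely trypsin-dissociated rat SCG neurons, with TEA/choline external solution (2 mM Ca2+) and Cs-methanesulfonate pipette solution. Currents evoked by 150 ms steps to +20 mV from −65 to −55 mV holding, every 40 s; compounds applied locally, effect as % inhibition of control amplitude.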

[5] = system: Na+ channels in superior cervical ganglion (SCG) neurons; assay: Whole-cell voltage clamp, Na+ current in SCG neurons; assay type: cell-based, rat; details: 10 μM
How it was run: as §1

Row | inhibition at 1 µM [1] [%] | inhibition at 10 µM [1] [%] | IC50 [1] [µM] | IC50 [2] [µM] | melting point [°C] | inhibition at 10 µM ([4]; 10 μM) [%] | IC50 ([4]; read-out: Inhibition of N-type Ca2+ Current IC50) [µM] | Compound | Inhibition of K+ Current, % Inhibition at 10 μM [3] [%] | Inhibition of Na+ Current, % Inhibition at 10 μM [5] [%]
1 | 41 | 85 | 1.85 | 5.8 |  |  |  | CC(C)(C)OC(=O)[C@@H](Cc1ccc(OCc2ccccc2)cc1)NC(=O)[C@H](Cc1c[nH]c2ccccc12)NC(=O)N1CCCCCC1 [Example 17, 2(R)-[2(S)-[(Azepane-1-carbonyl)-amino]-3-(1H-indol-3-yl)-propionylamino]-3-(4-benzyloxy-phenyl)-propionic acid tert-butyl ester] |  | 
2 | 50 | 97 | 0.93 | 3.5 |  |  |  | CC(C)(C)OC(=O)[C@@H](Cc1ccc(OCc2ccccc2)cc1)NC(=O)[C@H](Cc1ccccc1)NC(=O)N1CCCCCC1 [Example 18, 2(R)-{2(S)-[(Azepane-1-carbonyl)-amino]-3-phenyl-propionylamino}-3-(4-benzyloxy-phenyl)-propionic acid tert-butyl ester] |  | 
3 | 68 | 91 | 0.5 | 4.3 | 87 to 90 |  |  | Cc1ccc(COc2ccc(C[C@H](NC(=O)[C@H](Cc3ccccc3)NC(=O)N3CCCCCC3)C(=O)OC(C)(C)C)cc2)cc1 [Example 19, [S-(R*,R*)]-2-{2-[(Azepane-1-carbonyl)-amino]-3-phenyl-propionylamino}-3-[4-(4-methyl-benzyloxy)-phenyl]-propionic acid tert-butyl ester] |  | 
4 | 52 | 90 | 0.91 | 4.6 |  |  |  | CC(C)(C)OC(=O)[C@H](Cc1ccc(OCc2ccccc2)cc1)NC(=O)[C@H](Cc1c[nH]c2ccccc12)NC(=O)N1CCCCCC1 [Example 20, [S-(R*,R*)]-2-[2-[(Azepane-1-carbonyl)-amino]-3-(1H-indol-3-yl)-propionylamino]-3-(4-benzyloxy-phenyl)-propionic acid tert-butyl ester] |  | 
5 | 55 | 95 | 0.58 | 18 |  | 78 | 3.24 | CC(C)C[C@H](NC(=O)N1CCCCCC1)C(=O)N[C@@H](Cc1ccc(OCc2ccccc2)cc1)C(=O)NC(C)(C)C [Example 23, [S-(R*,R*)]-Azepane-1-carboxylic acid {1-[2-(4-benzyloxy-phenyl)-1-tert-butylcarbamoyl-ethylcarbamoyl]-3-methyl-butyl}-amide] | 61 | 30
